Test results reported in PubChem BioAssay AID328 (DTP/NCI, 2004).
Several values for one entry are separate records, joined by “and”; a condition that tells them apart may be missing. Equal entries are not always repeated. Toxic doses and inconclusive results are not listed. How the source made its calls: active means survival T/C of 150% or more; inactive means T/C below 125% in these data. Residues, ends and D or L forms follow the SMILES beside them.

System: BDF1 mice, P388 leukemia ip, median survival T/C
Test: NCI In Vivo Anticancer Drug Screen. Data for tumor model P388 Leukemia (intraperitoneal) in B6D2F1 (BDF1) mice
Details: endpoint: median survival time, higher = longer survival
In short: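 Antitumour effect was judged in vivo: survival in drug-treated mice, normalised to that of vehicle-dosed controls, gives the reported T/C.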

[1] = dose: 50.0 mg/kg/injection, schedule: Q01DX009 (ip), vehicle: saline with Tween-80
[2] = dose: 100.0 mg/kg/injection, schedule: Q01DX009 (ip), vehicle: saline with Tween-80
[3] = dose: 200.0 mg/kg/injection, schedule: Q01DX009 (ip), vehicle: saline with Tween-80
[4] = dose: 6.25 mg/kg/injection, schedule: Q01DX009 (ip), vehicle: saline
[5] = dose: 12.5 mg/kg/injection, schedule: Q01DX009 (ip), vehicle: saline
[6] = dose: 12.5 mg/kg/injection, schedule: Q04DX003 (ip), vehicle: saline
[7] = dose: 25.0 mg/kg/injection, schedule: Q04DX003 (ip), vehicle: saline
[8] = dose: 50.0 mg/kg/injection, schedule: Q04DX003 (ip), vehicle: saline
[9] = dose: 100.0 mg/kg/injection, schedule: Q04DX003 (ip), vehicle: Klucel (hydroxypropylcellulose) (HPC)
[10] = dose: 200.0 mg/kg/injection, schedule: Q04DX003 (ip), vehicle: Klucel (hydroxypropylcellulose) (HPC)
[11] = dose: 400.0 mg/kg/injection, schedule: Q04DX003 (ip), vehicle: Klucel (hydroxypropylcellulose) (HPC)
[12] = dose: 400.0 mg/kg/injection, schedule: Q01DX009 (ip), vehicle: saline with Tween-80
[13] = dose: 25.0 mg/kg/injection, schedule: Q01DX009 (ip), vehicle: saline
[14] = dose: 50.0 mg/kg/injection, schedule: Q01DX009 (ip), vehicle: saline
[15] = dose: 25.0 mg/kg/injection, schedule: Q01DX009 (ip), vehicle: saline with Tween-80

Measured: T/C

O=[N+]([O-])c1ccc(Oc2cc(Cl)c(Cl)cc2Cl)c([N+](=O)[O-])c1
inactive: dose: 200.0 mg/kg/injection, schedule: Q01DX009 (ip), vehicle: saline sonified 90 % of control | dose: 400.0 mg/kg/injection, schedule: Q01DX009 (ip), vehicle: saline sonified 90 % of control

O=c1[nH]nc(NCCO)c2ccccc12
inactive: [1] 112 % of control | [2] 91 % of control | [3] 102 % of control

CC1=C(Br)C(=O)C(c2c(C)cc(C)cc2C)=C(Br)C1=O
inactive: [4] 86 % of control | [5] 93 % of control | [6] 104 % of control | [7] 95 % of control | [8] 105 % of control | dose: 100.0 mg/kg/injection, schedule: Q04DX003 (ip), vehicle: saline 97 % of control | dose: 200.0 mg/kg/injection, schedule: Q04DX003 (ip), vehicle: saline 95 % of control

Cc1cc(C)cc(CCc2cc(C)cc(C)c2)c1
inactive: [9] 100 % of control | dose: 200.0 mg/kg/injection, schedule: Q01DX009 (ip), vehicle: Klucel (hydroxypropylcellulose) (HPC) 109 % of control | [10] 90 % of control | dose: 400.0 mg/kg/injection, schedule: Q01DX009 (ip), vehicle: Klucel (hydroxypropylcellulose) (HPC) 100 % of control | [11] 95 % of control

Cc1ccc2c(c1)nc1c3ccccc3nc(-c3ccccc3N)n21
inactive: [2] 97 % of control | [3] 115 % of control | [12] 108 % of control

CCOC(=O)CC/[N+]([O-])=C/c1ccccc1
inactive: dose: 12.5 mg/kg/injection, schedule: Q01DX009 (ip), vehicle: other 97 % of control | dose: 25.0 mg/kg/injection, schedule: Q01DX009 (ip), vehicle: other 112 % of control | dose: 50.0 mg/kg/injection, schedule: Q01DX009 (ip), vehicle: other 92 % of control | dose: 100.0 mg/kg/injection, schedule: Q01DX009 (ip), vehicle: other 97 % of control | dose: 200.0 mg/kg/injection, schedule: Q01DX009 (ip), vehicle: other 104 % of control

Cc1cc(NC(=O)NCCOc2ccc(N3C(N)=NC(N)=NC3(C)C)cc2Cl)ccc1S(=O)(=O)F
inactive: [5] 100 % of control | [13] 113 % of control | [14] 122 % of control

CC(CC(=N)N)NC(=O)C1CCC(N)=N1 (configuration not stated)
inactive: dose: 150.0 mg/kg/injection, schedule: Q01DX009 (ip), vehicle: saline 98 % of control | dose: 300.0 mg/kg/injection, schedule: Q01DX009 (ip), vehicle: saline 98 % of control

CCOC(=O)c1cccc(OP(=O)(N(C)C)N(C)C)c1
inactive: [1] 108 % of control | [2] 116 % of control

COc1ccc2c(c1)CCC1C2CCC2(C)/C(=N/O)C(Cl)C(O)C12 (configuration not stated)
inactive: dose: 6.25 mg/kg/injection, schedule: Q01DX001 (ip), vehicle: saline with Tween-80 100 % of control | dose: 12.5 mg/kg/injection, schedule: Q01DX001 (ip), vehicle: saline with Tween-80 109 % of control | dose: 25.0 mg/kg/injection, schedule: Q01DX001 (ip), vehicle: saline with Tween-80 97 % of control

CC(C)C(N)C(=O)NC(Cc1ccc(O)cc1)C(=O)NC(C(=O)O)C(C)C (stereo not drawn) (H-Val-Tyr-Val-OH; configuration not given here)
inactive: dose: 50.0 mg/kg/injection, schedule: Q01DX005 (ip), vehicle: saline 89 % of control | dose: 100.0 mg/kg/injection, schedule: Q01DX005 (ip), vehicle: saline 97 % of control | dose: 200.0 mg/kg/injection, schedule: Q01DX005 (ip), vehicle: saline 92 % of control

CCC(CO)NC(=O)/C=C/c1ccc(Cl)cc1 (configuration not stated)
inactive: [3] 91 % of control

COCCn1c2nc(=O)n(-c3ccccc3)c(=O)c-2nc2c1CCCC2
inactive: [15] 103 % of control | [1] 97 % of control and 112 % of control | [2] 113 % of control and 124 % of control | [3] 110 % of control

COc1ccc(CC(=O)NCCN(CCN(CCO)C(=O)Cc2ccc(OC)cc2)C(=O)Cc2ccc(OC)cc2)cc1
inactive: [2] 105 % of control | dose: 100.0 mg/kg/injection, schedule: Q04DX003 (ip), vehicle: saline with Tween-80 120 % of control | [3] 95 % of control | dose: 200.0 mg/kg/injection, schedule: Q04DX003 (ip), vehicle: saline with Tween-80 100 % of control | [12] 100 % of control | dose: 400.0 mg/kg/injection, schedule: Q04DX003 (ip), vehicle: saline with Tween-80 105 % of control

NC(=O)c1cc(=S)[nH]c2nc(Cl)nc(N)c12
inactive: dose: 100.0 mg/kg/injection, schedule: Q04DX002 (ip), vehicle: saline with Tween-80 120 % of control

CC(C)CCCC(C)C1CCC2C3CC=C4CC(OP(=O)(N5CC5)N5CC5)CCC4(C)C3CCC12C (configuration not stated)
inactive: [15] 98 % of control | [1] 100 % of control | [2] 117 % of control | [3] 110 % of control

O=C1c2ccccc2C(=O)N1CC[P+](c1ccc(Cl)cc1)(c1ccc(Cl)cc1)c1ccc(Cl)cc1
inactive: dose: 0.78 mg/kg/injection, schedule: Q01DX009 (ip), vehicle: water 103 % of control | dose: 1.56 mg/kg/injection, schedule: Q01DX009 (ip), vehicle: water 103 % of control | dose: 3.13 mg/kg/injection, schedule: Q01DX009 (ip), vehicle: water 103 % of control | dose: 6.25 mg/kg/injection, schedule: Q01DX009 (ip), vehicle: water 110 % of control | dose: 12.5 mg/kg/injection, schedule: Q01DX009 (ip), vehicle: water 103 % of control | dose: 25.0 mg/kg/injection, schedule: Q01DX009 (ip), vehicle: water 103 % of control

CCOC(=O)C1CCCC23CC(CC12)C(C)(C)C3Br (configuration not stated)
inactive: [9] 100 % of control | [10] 90 % of control | [11] 100 % of control

CC(C)(C)C([NH-])=O.CC(C)(C)C([NH-])=O.[Cl][Pt+2][Cl]
inactive: dose: 3.12 mg/kg/injection, schedule: Q01DX009 (ip), vehicle: saline 88 % of control | [4] 92 % of control | [5] 108 % of control | [6] 105 % of control | [13] 92 % of control | [7] 107 % of control | [14] 94 % of control | [8] 98 % of control

CN(CC[N+]1(C)CCCC1)P(=O)(N1CCCC1)N1CCCC1
inactive: [14] 106 % of control | dose: 100.0 mg/kg/injection, schedule: Q01DX009 (ip), vehicle: saline 101 % of control | dose: 200.0 mg/kg/injection, schedule: Q01DX009 (ip), vehicle: saline 109 % of control

COc1cc2c(c3c1c(=O)c1ccccc1n3C)C=CC(C)(C)O2
inactive: dose: 12.5 mg/kg/injection, schedule: Q01DX010 (ip), vehicle: saline 100 % of control | dose: 25.0 mg/kg/injection, schedule: Q01DX010 (ip), vehicle: saline 90 % of control | dose: 50.0 mg/kg/injection, schedule: Q01DX010 (ip), vehicle: saline 90 % of control | dose: 100.0 mg/kg/injection, schedule: Q01DX010 (ip), vehicle: saline 90 % of control

COc1ccc(-c2cc(=O)c3ccc4cc(OC)c(OC)cc4c3o2)cc1
inactive: dose: 1.56 mg/kg/injection, schedule: Q01DX009 (ip), vehicle: distilled water + Tween-80 102 % of control | dose: 3.13 mg/kg/injection, schedule: Q01DX009 (ip), vehicle: distilled water + Tween-80 86 % of control | dose: 6.25 mg/kg/injection, schedule: Q01DX009 (ip), vehicle: distilled water + Tween-80 87 % of control | dose: 12.5 mg/kg/injection, schedule: Q01DX009 (ip), vehicle: distilled water + Tween-80 89 % of control
